# Like-named read-outs stand apart in the source and are kept apart here.
# Tests used:
# [1] = system: T. gondii RH strain (RH-Tub-eYFP) tachyzoites; assay: microbe, parasite or virus in culture; format: cell-based, Toxoplasma gondii; conditions: 72 h, 72 h; for percent parasite growth at 2 µg/mL: Toxoplasma gondii
# [2] = system: P. falciparum 3D7 parasites; assay: P. falciparum growth inhibition assay, 1-cycle (72 h treatment), SYBR DNA staining (library screen at 2 μg/mL and dose-response); format: cell-based, Plasmodium falciparum; conditions: for activity at 2 µg/mL: Plasmodium falciparum, 3D7
# [3] = system: P. falciparum 3D7 parasites; assay: P. falciparum growth inhibition assay, 2-cycle (120 h treatment), delayed-death screen and dose-response; format: cell-based, Plasmodium falciparum; conditions: for activity at 2 µg/mL: Plasmodium falciparum, 3D7
# [4] = T. gondii, screen at 2 μg/mL, replicate 1, read-out: Tg_72h_%Growth_Rep1
# [5] = T. gondii, screen at 2 μg/mL, replicate 2, read-out: Tg_72h_%Growth_Rep2
# [6] = P. falciparum, 72 h, screen at 2 μg/mL, replicate 1, read-out: Pf_72h_%Growth_Rep1
# [7] = P. falciparum, 72 h, screen at 2 μg/mL, replicate 2, read-out: Pf_72h_%Growth_Rep2
# [8] = P. falciparum, 120 h, screen at 2 μg/mL, replicate 1, read-out: Pf_120h_%Growth_Rep1
# [9] = P. falciparum, 120 h, screen at 2 μg/mL, replicate 2, read-out: Pf_120h_%Growth_Rep2
# [10] = T. gondii RH, library screen at 2 μg/mL, % growth, replicate 1
# [11] = T. gondii RH, library screen at 2 μg/mL, % growth, replicate 2
# [12] = P. falciparum 3D7, 72 h, library screen at 2 μg/mL, % growth, replicate 1
# [13] = P. falciparum 3D7, 72 h, library screen at 2 μg/mL, % growth, replicate 2
# [14] = P. falciparum 3D7, 120 h, library screen at 2 μg/mL, % growth, replicate 1
# [15] = P. falciparum 3D7, 120 h, library screen at 2 μg/mL, % growth, replicate 2
# [16] = library screen at 2 μg/mL, % growth, replicate 1
# [17] = library screen at 2 μg/mL, % growth, replicate 2
# [18] = library screen at 2 μg/mL, 72 h, % growth, replicate 1
# [19] = library screen at 2 μg/mL, 72 h, % growth, replicate 2
# [20] = library screen at 2 μg/mL, 120 h, % growth, replicate 1
# [21] = library screen at 2 μg/mL, 120 h, % growth, replicate 2
structure (smiles),measurement,setting,value
COC(=O)C1=C2Nc3ccccc3[C@@]23CCN2C[C@]4(C[C@@H]5C[C@]67CCC[C@H]6CCN6CC[C@@]8(c9cccc(OC)c9N(C4)[C@@]58O)[C@@H]67)[C@@H]4OCC[C@]4(C1)[C@H]23 [Vobtusine],percent parasite growth at 2 µg/mL,[1]; [4],86.1%
same,percent parasite growth at 2 µg/mL,[1]; [5],105%
same,activity at 2 µg/mL,[2]; [6],81.5%
same,activity at 2 µg/mL,[2]; [7],87%
same,activity at 2 µg/mL,[3]; [8],166%
same,activity at 2 µg/mL,[3]; [9],96.3%
COC1C(O)CC(=O)OC(C)CC=CC=CC(O)C(C)CC(CC=O)C1OC1OC(C)C(OC2CC(C)(O)C(OC(=O)CC(C)C)C(C)O2)C(N(C)C)C1O (stereo not drawn) [BIA-L1538],Tg_72h_%Growth_Rep1,[1]; [10],16.93%
same,Tg_72h_%Growth_Rep2,[1]; [11],20.94%
same,Pf_72h_%Growth_Rep1,[2]; [12],49.92%
same,Pf_72h_%Growth_Rep2,[2]; [13],67.33%
same,Pf_120h_%Growth_Rep1,[3]; [14],5.60%
same,Pf_120h_%Growth_Rep2,[3]; [15],17.51%
COc1oc([C@H]2C/C(=C/C(C)=C/c3ccc([N+](=O)[O-])cc3)CO2)c(C)c(=O)c1C [Aureothin],Tg_72h_%Growth_Rep1,[1]; [16],66.52%
same,Tg_72h_%Growth_Rep2,[1]; [17],65.05%
same,Pf_72h_%Growth_Rep1,[2]; [18],103.52%
same,Pf_72h_%Growth_Rep2,[2]; [19],87.70%
same,Pf_120h_%Growth_Rep1,[3]; [20],128.40%
same,Pf_120h_%Growth_Rep2,[3]; [21],61.20%
CCCCCC(=O)NC1CCOC1=O (stereo not drawn) [BIA-H1495],Tg_72h_%Growth_Rep1,[1]; [10],133.00%
same,Tg_72h_%Growth_Rep2,[1]; [11],97.80%
same,Pf_72h_%Growth_Rep1,[2]; [12],85.11%
same,Pf_72h_%Growth_Rep2,[2]; [13],87.66%
same,Pf_120h_%Growth_Rep1,[3]; [14],97.98%
same,Pf_120h_%Growth_Rep2,[3]; [15],95.38%
CC[C@H](C)[C@H]1O[C@]2(C=C[C@@H]1C)C[C@@H]1C[C@@H](C/C=C(\C)[C@@H](O)[C@@H](C)/C=C/C=C3\CO[C@@H]4[C@H](O)C(C)=C[C@@H](C(=O)O1)[C@]34O)O2 [Avermectin B1a aglycone],Tg_72h_%Growth_Rep1,[1]; [16],137.71%
same,Tg_72h_%Growth_Rep2,[1]; [17],97.71%
same,Pf_72h_%Growth_Rep1,[2]; [18],81.70%
same,Pf_72h_%Growth_Rep2,[2]; [19],78.59%
same,Pf_120h_%Growth_Rep1,[3]; [20],81.78%
same,Pf_120h_%Growth_Rep2,[3]; [21],74.45%
CC(C)c1ncc(Cc2ccccc2)[nH]c1=O [Aureusimine B],Tg_72h_%Growth_Rep1,[1]; [16],82.28%
same,Tg_72h_%Growth_Rep2,[1]; [17],99.21%
same,Pf_72h_%Growth_Rep1,[2]; [18],102.22%
same,Pf_72h_%Growth_Rep2,[2]; [19],85.03%
same,Pf_120h_%Growth_Rep1,[3]; [20],140.97%
same,Pf_120h_%Growth_Rep2,[3]; [21],94.84%
"CC[C@H]1OC(=O)[C@H](C)[C@@H](O[C@H]2C[C@@](C)(OC)[C@@H](O)[C@H](C)O2)[C@H](C)[C@@H](O[C@@H]2O[C@H](C)C[C@H](N(C)C)[C@H]2O)[C@](C)(O)C[C@@H](C)C(=O)[C@H](C)[C@H]2OC(=O)O[C@@]21C [Davercin, reference compound]",Tg_72h_%Growth_Rep1,"[1]; T. gondii, screen at 2 μg/mL, replicate 1",45.64%
same,Tg_72h_%Growth_Rep2,"[1]; T. gondii, screen at 2 μg/mL, replicate 2",28.61%
same,1) Growth (%) at 72 h,"[2]; P. falciparum, 2 μg/mL, 72 h",62.94%
same,Pf_72h_%Growth_Rep1,"[2]; P. falciparum, 72 h, screen at 2 μg/mL, replicate 1",70.33%
same,Pf_72h_%Growth_Rep2,"[2]; P. falciparum, 72 h, screen at 2 μg/mL, replicate 2",55.54%
same,2) Growth (%) at 120 h,"[3]; P. falciparum, 2 μg/mL, 120 h",13.05%
same,Pf_120h_%Growth_Rep1,"[3]; P. falciparum, 120 h, screen at 2 μg/mL, replicate 1",17.41%
same,Pf_120h_%Growth_Rep2,"[3]; P. falciparum, 120 h, screen at 2 μg/mL, replicate 2",8.68%
same,3) Fold change (72 h/120 h),"[3]; P. falciparum, growth at 72 h / growth at 120 h, 2 μg/mL",4.8
O=C(O)/C=C/c1ccccc1 [Cinnamic acid],percent parasite growth at 2 µg/mL,[1]; [4],86.5%
same,percent parasite growth at 2 µg/mL,[1]; [5],96.7%
same,activity at 2 µg/mL,[2]; [6],90.3%
same,activity at 2 µg/mL,[2]; [7],87.8%
same,activity at 2 µg/mL,[3]; [8],147%
same,activity at 2 µg/mL,[3]; [9],102%

# — paper PMC12396409, “Screening and hit evaluation of a microbial metabolite library against the pathogenic Plasmodium falciparum and Toxoplasma gondii parasites” (International Journal for Parasitology: Drugs and Drug …, 2025)
